# From PMC4565635, “6-Shogaol Inhibits Breast Cancer Cells and Stem Cell-Like Spheroids by Modulation of Notch Signaling Pathway and Induction of Autophagic Cell Death” (PLoS ONE, 2015)
# Experiments:
# [1] = test system: MRC5, NP69, HaCaT and HMEC; design: method as in PMID 23612072; settings: cited from earlier work
# MDA MB-231 spheroid = experiment: MTT cytotoxicity assay, spheroids; assay type: cell-based, human; settings: for IC50: MTT, 48 hours, drug added three days after seeding
# Method: (§1) To check the effect of different drugs on the viability of spheroids, cells were seeded at 2.5×10^4 cells/well in 24-well ultra-low attachment plates and grown as spheroids. After 3 days, 6-shogaol (1–100 μM) or taxol (5 nM-50 μM) or curcumin (2–50 μM) was added to the wells and MTT assay was performed as explained above. Standard deviation was calculated from three independent experiments and the data were represented as the average of three experiments.
# MCF-7 spheroid [2] = experiment: MTT cytotoxicity assay, spheroids; assay type: cell-based, human; settings: for IC50: MTT, 48 hours, drug added three days after seeding
# Method: as §1
# [3] = test system: breast cancer spheroids (CD44+CD24-/low cells); experiment: Flow cytometric analysis of cell surface markers CD44/CD24; assay type: cell-based, human; settings: 40 μM, 18 hours; untreated 27.3%
# Method: Monolayer cells or spheroids (with or without treatment of 6-shogaol) were dispersed by trypsin-EDTA. Cells were then pelleted down by centrifugation at 1600 rpm for 5 minutes at 4°C and resuspended in 1 ml of DMEM containing 2% FBS. Fluorescein isothiocyanate (FITC)-conjugated CD24 monoclonal antibody and phycoerythrin (PE)-conjugated CD44 monoclonal antibody (BD Biosciences) were added in 1:100 dilution and incubated on ice for 45 minutes in dark. The cells were then analyzed by flow cytometer (BD FACS Aria II) for the expression of CD24 and CD44.
# MCF-7 spheroids [4] = experiment: Primary sphere formation; assay type: cell-based, human
# Method: (§2) 5000 cells/well were seeded in ultra low attachment plates. After 3 days of seeding, the spheres formed were kept with different concentrations of 6-shogaol and/or 25 μM DAPT for 7 days and the number of spheres were counted under the microscope. These primary spheres were dispersed and kept in fresh media without any treatment and counted again after 7 days to check the ability to regrow into secondary spheres. Control primary spheres were also processed similarly for comparison. Spheres were counted in Olympus IX71 microscope using 10X objective.
# MCF-7 cells [5] = experiment: DAPI staining for apoptosis (chromatin condensation); assay type: cell-based, human; settings: 25 μM
# Method: Cells were seeded on cover slips. […] Cells were washed with PBS, fixed with Methanol-EDTA for 10 minutes at -20°C followed by rehydration with PBS at room temperature and incubated with 1 μg/ml DAPI. Mounted coverslips were visualised at 40X magnification under fluorescence microscope (Olympus IX71). Apoptotic cells were counted from five different fields.
# MCF-7 spheroids [6] = experiment: Secondary sphere formation; assay type: cell-based, human; settings: for inhibition of secondary spheroid colonies: regrown 1 week without compound
# Method: as §2
# breast cancer spheroids = experiment: Apoptosis detection in spheroids; assay type: cell-based, human; settings: 40 μM, upto 72 or 96 hours
# [7] = test system: MDA-MB-231 monolayer cells; experiment: MTT cytotoxicity assay, monolayer; assay type: cell-based, human; settings: drug added one day after seeding
# Method: (§3) Monolayer cells (5×10^3cells/well) were seeded in quadruplicates in 96 well plates and were incubated with varying concentrations of 6-shogaol (1–100 μM), taxol (0.2–100 nM) or curcumin (4–80 μM). The effect of the drugs on the viability of all the cell lines was quantified by MTT (3-[4,5-dimethylthiazol-2-yl]-2,5 diphenyltetrazolium bromide) assay at different time points after drug treatment using a Biorad Plate reader. The IC50 values were calculated from the plot of percentage cell viability versus concentration of drug using the nonlinear regression programme of Origin.
# MCF-7 monolayer cells = experiment: MTT cytotoxicity assay, monolayer; assay type: cell-based, human; settings: drug added one day after seeding
# Method: as §3
# LC3-II in MCF7 cells = experiment: Western blot of LC3-II expression; assay type: cell-based, human; settings: 48 hours
# Method: Lysates were placed into ice for 1 hour to ensure complete lysis followed by centrifugation at 14,000 g for 10 minutes and the supernatant was collected. Proteins were subjected to SDS-PAGE and transferred to polyvinylidene fluoride membrane. The membranes were blocked and incubated overnight with primary antibodies at 4°C followed by incubation with horseradish peroxidase tagged secondary antibodies. The blots were developed using ECL reagent. The primary antibodies were used in the following dilutions: Cleaved Notch1 (1:2000), Hes1 (1:200), Cyclin D1 (1:400), PARP (1:500 for sc) and (1:1000 for CST), LC3A/B (1:500), Bcl-2 (1:1000), Bax (1:1000) and β-actin (1:2000). β-actin was used as loading controls.
# Densitometry was conducted for all the western blots using […] software (Bio-Rad). Normalisation was done according to the loading control and fold change was calculated with respect to the control. For graphs, results are depicted as mean ± standard error of mean or standard deviation (calculated from two or more experiments). The p-values were obtained using Student’s unpaired t-test and p < 0.05 was considered to be statistically significant.
# MCF-7 spheroid [8] = experiment: Cell cycle analysis by flow cytometry (propidium iodide); assay type: cell-based, human; settings: 25 μM, 48 hours; control 24%
# Method: (§4) Cell cycle distribution of cells treated with 6-shogaol was analyzed by flow cytometric measurement of cellular DNA content. MCF-7 cells (5×10^5 cells/well) were subjected to 6-shogaol treatment for various time points. Culture media containing detached cells were collected and attached cells were trypsinized. Cells were pelleted, fixed in 70% (v/v) ethanol and stored at 4°C. In case of spheroids, cells were treated with different concentrations of 6-shogaol for 48 hours and fixed for further analysis. Before analysis, cells were re-washed with PBS and incubated with 10 μg/ml RNaseA and 400 μg/ml propidium iodide for 30 minutes at 37°C. Data were analyzed using FACS Diva software.
# MCF-7 monolayer = experiment: as above; assay type: cell-based, human; settings: 16 μM (2×IC50), control 29%
# Method: as §4
# HEK 293 cells = experiment: MTT cytotoxicity assay, noncancerous cells; assay type: cell-based, human
# Method: as §3
# HaCaT cells = experiment: MTT cytotoxicity assay, noncancerous cells; assay type: cell-based, human; settings: 48 hours
# Method: as §3
# MCF-7 cells [9] = experiment: Annexin V/PI flow-cytometric apoptosis assay; assay type: cell-based, human; settings: 25 μM, 48 hours
# Method: Apoptosis was quantified by using a FITC Annexin V Apoptosis Detection kit according to manufacturer’s instructions. MCF-7 cells were treated with 15 μM and 25 μM of 6-shogaol for 24, 48 and 72 hours, respectively. Attached and floating cells were collected and analyzed by a flow cytometer (BD FACS Aria II).
compound,measurement,setting,value
CCCCC/C=C/C(=O)CCc1ccc(O)c(OC)c1 [6-shogaol],toxicity to normal cells,[1],not toxic
same,effective concentration in spheroids versus monolayer cells,MDA MB-231 spheroid; MDA-MB-231 spheroids vs MDA-MB-231 monolayer,2 fold
same,IC50,MDA MB-231 spheroid,11.2 ± 0.83 µM
same,potency against MDA-MB-231 spheroids versus MCF-7 spheroids,MDA MB-231 spheroid; more potent against MDA-MB-231 spheroids,~ 3 fold
same,inhibition of cell viability,"MCF-7 spheroid [2]; 10 μM, after 6 days",46%
same,inhibition of cell viability,"MCF-7 spheroid [2]; 10 μM, day 4",~ 35%
same,inhibition of cell viability,"MCF-7 spheroid [2]; 20 μM, day 4",56%
same,inhibition of cell viability,"MCF-7 spheroid [2]; 40 μM, day 4",83%
same,effective concentration in spheroids versus monolayer cells,MCF-7 spheroid [2]; MCF-7 spheroids vs MCF-7 monolayer,5 fold
same,IC50,MCF-7 spheroid [2],39.5 ± 0.62 µM
same,percentage of CD44+CD24-/low cells (Q1),[3],2.3%
same,reduction of number of primary spheroid colonies,"MCF-7 spheroids [4]; 1 μM, 7 days",2 fold
same,average number of spheroid colonies (primary),"MCF-7 spheroids [4]; 1 μM, 7 days continuous treatment, control 96",48 colonies
same,inhibition of primary spheroid colonies,"MCF-7 spheroids [4]; 40 μM, 7 days",24 fold
same,number of spheroid colonies (primary),"MCF-7 spheroids [4]; 40 μM, 7 days continuous treatment, control 96",4 colonies
same,apoptosis as measured by chromatin condensation,MCF-7 cells [5]; 48 hours,19%
same,apoptosis as measured by chromatin condensation,MCF-7 cells [5]; 72 hours,28%
same,secondary sphere formation,MCF-7 spheroids [6]; concentrations above 10 μM,Not a single secondary sphere was found
same,inhibition of secondary spheroid colonies,"MCF-7 spheroids [6]; primary spheroids treated with 1 μM for 1 week, control ~55 colonies",71%
same,inhibition of secondary spheroid colonies,MCF-7 spheroids [6]; primary spheroids treated with 5 μM for 1 week,80%
same,inhibition of secondary spheroid colonies,MCF-7 spheroids [6]; primary spheroids treated with 10 μM for 1 week,94.5%
same,apoptosis in breast cancer spheroids,breast cancer spheroids,not able to detect appreciable amount of apoptosis
same,IC50,[7]; 48 hours,5.67 ± 0.73 µM
same,IC50,MCF-7 monolayer cells; 48 hours,7.94 ± 0.57 µM
same,fold increase in LC3-II expression,"LC3-II in MCF7 cells; 5 μM 6-shogaol alone, relative to control",1.8 fold
same,fold increase in LC3-II expression,LC3-II in MCF7 cells; 5 μM 6-shogaol in combination with low concentration of chloroquine,3.3 fold
same,fold increase in LC3-II expression,"LC3-II in MCF7 cells; 15 μM 6-shogaol alone, relative to control",2.1 fold
same,fold increase in LC3-II expression,LC3-II in MCF7 cells; 15 μM 6-shogaol in combination with low concentration of chloroquine,3.43 fold
same,percentage of cells in G2/M,MCF-7 spheroid [8],42%
same,percentage of cells in G2/M,MCF-7 monolayer; 24h,48%
same,percentage of cells in G2/M,MCF-7 monolayer; 48h,55%
same,IC50,HEK 293 cells; 48 hours,69.97 ± 0.52 µM
same,IC50,HaCaT cells,103.8 ± 0.67 µM
same,early apoptotic cells (Annexin positive/PI negative),MCF-7 cells [9],11%
"COc1cc(/C=C/C(=O)CC(=O)/C=C/c2ccc(O)c(OC)c2)ccc1O [Curcumin, curcumin]",IC50,"MCF-7 spheroid [2]; Homo sapiens, MCF7",7.27 ± 0.54 µM
same,IC50,"MCF-7 monolayer cells; Homo sapiens, MCF7, 48 hours",37.1 ± 0.85 µM
same,IC50,"HEK 293 cells; Homo sapiens, HEK293, 48 hours",23.1 ± 0.68 µM
same,IC50,"HaCaT cells; Homo sapiens, HaCaT",10.4 ± 0.87 µM
"CC(=O)O[C@H]1C(=O)[C@@]2(C)[C@H]([C@H](OC(=O)c3ccccc3)[C@]3(O)C[C@H](OC(=O)[C@H](O)[C@@H](NC(=O)c4ccccc4)c4ccccc4)C(C)=C1C3(C)C)[C@]1(OC(C)=O)CO[C@@H]1C[C@@H]2O [Taxol, reference compound]",IC50,"MDA MB-231 spheroid; Homo sapiens, MDA-MB-231",> 20 µM
same,IC50,"MCF-7 spheroid [2]; Homo sapiens, MCF7",> 50 µM
same,IC50,"[7]; Homo sapiens, MDA-MB-231, 48 hours",0.00286 ± 0.00066 µM
same,IC50,"MCF-7 monolayer cells; Homo sapiens, MCF7, 48 hours",0.00492 ± 0.00071 µM
same,IC50,"HEK 293 cells; Homo sapiens, HEK293, 48 hours",0.1038 ± 0.00048 µM
same,IC50,"HaCaT cells; Homo sapiens, HaCaT",0.0427 ± 0.00075 µM
